Results from the supplement of paper PMC11208160.

Assay: recombinant barcode read abundance after kanamycin selection (control-corrected) (log10(CPM+1)); higher = more efficient recombination; sequences stand for … in AGTGCAGAGAAAATCGGCCAGTTTTCTCTGCCTGCAGTCCGCATGCCGT…AGATTTATGCAGCGGACTGCCTTTCTCCCAAAGTGATAAACCGGACAGTATCATGGACCGGTTTTCCCGGTAATCCGTATTTGCAAGGTTGGTTTCACT; site = the 11-nt target
How it was run: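 Recombination efficiency draws on barcodes counted at recombinant junctions in a pooled E. coli screen of targets paired with IS621 bridge RNA target-binding loops. The counts were converted to counts per million, averaged and corrected against the chloramphenicol/ampicillin LB agar control, then reported as log10(CPM+1). Selection plates held chloramphenicol/ampicillin/kanamycin with 0.1 mM IPTG, with two replicates per condition.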
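Further: IS621 recombinase and bridge RNA in Escherichia coli cells.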

“AGGGCAGCTTGGGTTCTAACCTGTTGCCT (site AGGGAAGCTAG)” and “AGGGCAGCTTGGGTTCTAACCTGTTGCCT (site AGGGCAGCTAG)” are within 0.2 log units of each other in “recombinant barcode read abundance (log10)” value: 0.135 for the first, 0.305 for the second.

“AGGGCAGCTTGGGTTCTAACCTGTTGCCT (site AGGGGAGCTAG)” and “AGGGCAGCTTGGGTTCTAACCTGTTGCCT (site AGGGTAGCTAG)” are within 0.2 log units of each other in “recombinant barcode read abundance (log10)” value: 0.0111 for the first, 0.0905 for the second.

“AGGGCGCCTTGGGTTCTAACCTGTTGCCT (site AAGGCGCCTAG)” and “AGGGCGCCTTGGGTTCTAACCTGTTGCCT (site ACGGCGCCTAG)” are within 0.2 log units of each other in “recombinant barcode read abundance (log10)” value: 0.0579 for the first, 0.173 for the second.

First: AGGGCGCCTTGGGTTCTAACCTGTTGCCT (site AGGGCGCCTAG)
Second: AGGGCGCCTTGGGTTCTAACCTGTTGCCT (site ATGGCGCCTAG)
The “recombinant barcode read abundance (log10)” value of the first is higher: 1.63 for the first, 0.122 for the second.

Compared with “AGGGGTCCTTGGGTTCTAACCTGTTGCAT (site AGGGGTCCTAT)”, “AGGGGTCCTTGGGTTCTAACCTGTTGCAT (site TGGGATCCTAT)” is lower in “recombinant barcode read abundance (log10)” value: 2.72 for the first, 0.482 for the second.

First: AGGGTACCTTGGGTTCTAACCTGTTGCAG (site AGGGTACCTCT)
Second: AGGGTACCTTGGGTTCTAACCTGTTGCAG (site GAATCGACTAG)
The “recombinant barcode read abundance (log10)” value of the first is higher: 2.52 for the first, 0.0315 for the second.

“AGGGTAGCTTGGGTTCTAACCTGTTGCCT (site AGGGAAGCTAG)” and “AGGGTAGCTTGGGTTCTAACCTGTTGCCT (site AGGGCAGCTAG)” are within 0.2 log units of each other in “recombinant barcode read abundance (log10)” value: 0.101 for the first, 0.224 for the second.

Going from “AGGGTAGCTTGGGTTCTAACCTGTTGCCT (site AGGGGAGCTAG)” to “AGGGTAGCTTGGGTTCTAACCTGTTGCCT (site AGGGTAGCTAG)”, the “recombinant barcode read abundance (log10)” value rises from 0.163 to 1.04.

Going from “AGGTATGCTTGGGTTCTAACCTGTTGCCT (site AGGTATGCTAG)” to “AGGTATGCTTGGGTTCTAACCTGTTGCCT (site AGGTCTGCTAG)”, the “recombinant barcode read abundance (log10)” value falls from 1.35 to 0.0877.

Going from “AGGTATGCTTGGGTTCTAACCTGTTGCCT (site AGGTGTGCTAG)” to “AGGTATGCTTGGGTTCTAACCTGTTGCCT (site AGGTTTGCTAG)”, the “recombinant barcode read abundance (log10)” value falls from 0.51 to 0.248.

Going from “AGGTCTACTTGGGTTCTAACCTGTTGCAC (site AGGTCTACTGT)” to “AGGTCTACTTGGGTTCTAACCTGTTGCAC (site GTCCTATCTTA)”, the “recombinant barcode read abundance (log10)” value falls from 0.521 to 0.13.

“AGGTCTACTTGGGTTCTAACCTGTTGCTT (site AGGTCTACTAA)” and “AGGTCTACTTGGGTTCTAACCTGTTGCTT (site GAACGCTCTTG)” are within 0.2 log units of each other in “recombinant barcode read abundance (log10)” value: 0.296 for the first, 0.171 for the second.

“AGGTTCCCTTGGGTTCTAACCTGTTGCTC (site AGGTTCCCTAA)” and “AGGTTCCCTTGGGTTCTAACCTGTTGCTC (site AGGTTCCCTCA)” are within 0.2 log units of each other in “recombinant barcode read abundance (log10)” value: 0.243 for the first, 0.101 for the second.

Going from “AGGTTCCCTTGGGTTCTAACCTGTTGCTC (site AGGTTCCCTGA)” to “AGGTTCCCTTGGGTTCTAACCTGTTGCTC (site AGGTTCCCTTA)”, the “recombinant barcode read abundance (log10)” value falls from 1.45 to 0.026.

First: AGTAAGCCTTGGGTTCTAACCTGTTGCCA (site AGTAAGCCTTG)
Second: AGTAAGCCTTGGGTTCTAACCTGTTGCCA (site AGTAAGGCTAG)
The “recombinant barcode read abundance (log10)” value of the first is higher: 0.33 for the first, 0.113 for the second.

Going from “AGTAAGGCTTGGGTTCTAACCTGTTGCCT (site AGTAAGCCTTG)” to “AGTAAGGCTTGGGTTCTAACCTGTTGCCT (site AGTAAGGCTAG)”, the “recombinant barcode read abundance (log10)” value falls from 0.44 to 0.0834.

“AGTACAACTTGGGTTCTAACCTGTTGCCT (site AGAACAACTAG)” and “AGTACAACTTGGGTTCTAACCTGTTGCCT (site AGCACAACTAG)” are within 0.2 log units of each other in “recombinant barcode read abundance (log10)” value: 0.134 for the first, 0.153 for the second.

“AGTACAACTTGGGTTCTAACCTGTTGCCT (site AGGACAACTAG)” and “AGTACAACTTGGGTTCTAACCTGTTGCCT (site AGTACAACTAG)” are within 0.2 log units of each other in “recombinant barcode read abundance (log10)” value: 0.0508 for the first, 0.237 for the second.

First: AGTAGGACTTGGGTTCTAACCTGTTGCAG (site AGCAGGGCTCT)
Second: AGTAGGACTTGGGTTCTAACCTGTTGCAG (site AGTAGGACTCT)
The “recombinant barcode read abundance (log10)” value of the first is lower: 0.474 for the first, 2 for the second.

“AGTAGTGCTTGGGTTCTAACCTGTTGCCT (site AATAGTGCTAG)” and “AGTAGTGCTTGGGTTCTAACCTGTTGCCT (site ACTAGTGCTAG)” are within 0.2 log units of each other in “recombinant barcode read abundance (log10)” value: 0.186 for the first, 0.0779 for the second.

“AGTAGTGCTTGGGTTCTAACCTGTTGCCT (site AGTAGTGCTAG)” and “AGTAGTGCTTGGGTTCTAACCTGTTGCCT (site ATTAGTGCTAG)” are within 0.2 log units of each other in “recombinant barcode read abundance (log10)” value: 0.0473 for the first, 0.0347 for the second.

“AGTATATCTTGGGTTCTAACCTGTTGCCT (site AGTATATCTAG)” and “AGTATATCTTGGGTTCTAACCTGTTGCCT (site GGCATATCTAG)” are within 0.2 log units of each other in “recombinant barcode read abundance (log10)” value: 0.121 for the first, 0.171 for the second.

First: AGTATCCCTTGGGTTCTAACCTGTTGCCG (site AGTATCCCTCG)
Second: AGTATCCCTTGGGTTCTAACCTGTTGCCG (site GTCTCATCTAT)
The “recombinant barcode read abundance (log10)” value of the first is higher: 0.461 for the first, 0.2 for the second.

First: AGTATGACTTGGGTTCTAACCTGTTGCCT (site AGTATGACTAG)
Second: AGTATGACTTGGGTTCTAACCTGTTGCCT (site CGTATGACTAG)
The “recombinant barcode read abundance (log10)” value of the first is higher: 0.923 for the first, 0.304 for the second.

“AGTATGACTTGGGTTCTAACCTGTTGCCT (site GGTATGACTAG)” and “AGTATGACTTGGGTTCTAACCTGTTGCCT (site TGTATGACTAG)” are within 0.2 log units of each other in “recombinant barcode read abundance (log10)” value: 0.0345 for the first, 0.0581 for the second.

“AGTCATACTTGGGTTCTAACCTGTTGCTT (site AGTCATACTAA)” and “AGTCATACTTGGGTTCTAACCTGTTGCTT (site AGTCGGACTAA)” are within 0.2 log units of each other in “recombinant barcode read abundance (log10)” value: 0.199 for the first, 0.0739 for the second.

First: AGTCGACCTTGGGTTCTAACCTGTTGCCT (site AGTCGACCTAG)
Second: AGTCGACCTTGGGTTCTAACCTGTTGCCT (site CGTCGACCTAG)
The “recombinant barcode read abundance (log10)” value of the first is higher: 1.78 for the first, 0.328 for the second.

“AGTCGACCTTGGGTTCTAACCTGTTGCCT (site GGTCGACCTAG)” and “AGTCGACCTTGGGTTCTAACCTGTTGCCT (site TGTCGACCTAG)” are within 0.2 log units of each other in “recombinant barcode read abundance (log10)” value: 0.112 for the first, 0.143 for the second.

“AGTCGTTCTTGGGTTCTAACCTGTTGCCT (site AGTCGTTCTAG)” and “AGTCGTTCTTGGGTTCTAACCTGTTGCCT (site GAGTTCACTCT)” are within 0.2 log units of each other in “recombinant barcode read abundance (log10)” value: 0.23 for the first, 0.141 for the second.

Going from “AGTCTAGCTTGGGTTCTAACCTGTTGCCC (site AGTCTAGCTAG)” to “AGTCTAGCTTGGGTTCTAACCTGTTGCCC (site AGTCTAGCTCG)”, the “recombinant barcode read abundance (log10)” value rises from 0.421 to 1.16.

Going from “AGTCTAGCTTGGGTTCTAACCTGTTGCCC (site AGTCTAGCTGG)” to “AGTCTAGCTTGGGTTCTAACCTGTTGCCC (site AGTCTAGCTTG)”, the “recombinant barcode read abundance (log10)” value falls from 1.11 to 0.149.

Compared with “AGTCTAGCTTGGGTTCTAACCTGTTGCTC (site AGTCTAGCTGA)”, “AGTCTAGCTTGGGTTCTAACCTGTTGCTC (site AGTCTAGCTTA)” is higher in “recombinant barcode read abundance (log10)” value: 0.336 for the first, 0.62 for the second.

Going from “AGTCTGCCTTGGGTTCTAACCTGTTGCTG (site AGTCTGCCTCA)” to “AGTCTGCCTTGGGTTCTAACCTGTTGCTG (site GCCGATACTTG)”, the “recombinant barcode read abundance (log10)” value falls from 0.686 to 0.0929.
